In US20220152082A1, “Methods for Cancer Diagnosis, Prognosis or Treatment” (AnPac Bio-Medical Science Co., Ltd., priority 2019, published 2022):

What was measured:
[1] = system: LINC00472; experiment: qRT-PCR of LINC00472 expression, T47D; format: cell-based, human; details: 10 μM, 8 days
From the text: Total RNA was extracted from fresh-frozen tumor samples and cultured tumor cells using the […] kit (Qiagen). RNA samples were reverse-transcribed (RT) to cDNA using the cDNA Reverse Transcription kit (LifeTech), and analyzed for LINC00472 expression with real-time PCR (qPCR). Breast cancer cells were transfected with Lincode Human LINC00472 (79940) siRNA-SMART pool (D-001320-10-05) or Lincode Non-targeting Pool (D-001320-10-05), negative control from Dharmacon, following the manufacturer's protocol for Lipofectamine RNAiMAX (Thermo Fisher Scientific). The method of transfection was known in the art. Cell lysates were prepared for analysis after 36 hours of incubation of the transfected cells. […] After eight days of culture, cells were collected, and total RNA and proteins were extracted for qRT-PCR analysis of LINC00472 and western blot of ERα and NF-κB, respectively.

[2] = system: NF-κB; experiment: Western blot of p65 and IκBα phosphorylation, T47D; format: cell-based, human; details: 10 μM, 8 days
[3] = system: LINC00472; experiment: TNF-α treatment, LINC00472 expression; format: cell-based; details: breast cancer cells, TNF-α 10 ng/ml, 24 hours
Description: Total RNA was extracted from fresh-frozen tumor samples and cultured tumor cells using the Allprep DNA/RNA kit (Qiagen). RNA samples were reverse-transcribed (RT) to cDNA using the cDNA Reverse Transcription kit (LifeTech), and analyzed for LINC00472 expression with real-time PCR (qPCR).
TNF-α (Sigma-Aldrich), diluted in the culture medium immediately before experiment, was added to cultured cells with a final concentration of 10 ng/ml. The cells were incubated for 24 hours before analysis. DMSO (Sigma-Aldrich) treated cells were used as control. Total RNA and proteins were extracted for analysis of LINC00472 expression and NF-κB activation.

| Compound | expression of LINC00472 [1] | expression of LINC00472 ([1]; listed as tamoxifen) | phosphorylation of p65 and IκBα [2] | LINC00472 expression [3] |
| --- | --- | --- | --- | --- |
| CC/C(=C(\c1ccc(O)cc1)c1ccc(OCCN(C)C)cc1)c1ccccc1 [4-hydroxytamoxifen, 4-Hydroxytamoxifen] | decreased | lowered | increased |  |
| TNF-α |  |  |  | no effect |
